We go through 9 molecules from patent US6355687B1, “Cosmetic compositions containing substituted iminodibenzyl or fluorene derivatives” (Unilever Home and Personal Care USA, division of Conopco, …, priority 2000, dated 2002).

Structures are written as SMILES. Several values for one entry are separate records, joined by “and”; a condition that tells them apart may be missing. Equal values may be shown once. Read-outs that look alike come from different tables or passages of the source.

For the assay, the system named is human sebocytes. Put plainly: Sebum suppression: 14C-acetate incorporation in cultured human sebocytes, test agent alone or with retinol. The assay is classed as cell-based. Conditions: for activity at 1 µM / activity at 10 µM: read-out: % of Control. How it is done:
Compounds A through H were tested for their potential to suppress sebum expression, alone or in the presence of a retinoid.
Secondary cultures of human sebocytes obtained from an adult […] were grown in 48-well tissue culture plates (Costar Corp.; Cambridge, Mass.) or 96-well tissue culture plates (Packard Co.; Meriden, Conn.) until confluent. Sebocyte growth medium consisted of Clonetics Keratinocyte Basal Medium (KBM) supplemented with 14 μg/ml bovine pituitary extract, 0.4 μg/ml hydrocortisone, 5 μg/ml insulin, 10 ng/ml epidermal growth factor, 1.2×10−10 M cholera toxin, 100 units/ml penicillin, and 100 μg/ml streptomycin. All cultures were incubated at 37° C. in the presence of 7.5% CO2. Medium was changed three times per week.
On the day of experimentation, the growth medium was removed and the sebocytes washed three times with sterile Dulbecco's Modified Eagle Medium (DMEM; phenol red free). Fresh DMEM was added to each sample (duplicates, triplicates, or quadruplicates depending on the experiment) with 5 microliter of test agent solubilized in ethanol either alone or in the presence of one or 10 micromolar of retinol. Controls consisted of addition of ethanol alone, retinol alone, or phenol red, which has estrogen-like activity and is included as a positive control.
Each plate was returned to the incubator for 20 hours followed by the addition of 14C-acetate buffer (5 mM final concentration, 56 mCi/mmol specific activity). Sebocytes were returned to the incubator for four hours after which each culture was rinsed three times with phosphate buffered saline to remove unbound label. Radioactive label remaining in the sebocytes was harvested and counted using a Beckman scintillation counter.

The mark [1] stands for this setting: 10 μM test compound + 10 μM Retinol.
[2] abbreviates: Homo sapiens, 1 μM test compound + 1 μM Retinol.
The mark [3] stands for this setting: Homo sapiens, 10 μM test compound + 1 μM Retinol.
The mark [4] stands for this setting: Homo sapiens, 10 μM test compound + 10 μM Retinol.
The mark [5] stands for this setting: Homo sapiens, 10 μM test compound alone.
[6] abbreviates: Homo sapiens, 1 μM test compound + 10 μM Retinol.
The mark [7] stands for this setting: Homo sapiens, 1 μM test compound alone.

In the case of `O=S1(=O)OC(c2ccc(O)cc2)(c2ccc(O)cc2)c2ccccc21` [Phenol Red, phenol red, reference compound], where the note is “28 μM Phenol Red (positive control)”, the “% of Control” value is recorded as 84.4%. Further, the activity at 28 µM (Homo sapiens, 28 μM Phenol Red (positive control)) amounted to 67.6%.
With `CC(O)c1cccc(NC(=O)N2c3ccccc3CCc3ccccc32)c1` (stereo not drawn) [Compound A], the “% of Control” value reads like this: (1 μM test compound + 1 μM Retinol) 86.2%; (10 μM test compound + 1 μM Retinol) 85.8% and 45.9%; under setting [1], 80.1% and 44.3%; (10 μM test compound alone, 10 µM) 88.8%.
Regarding `O=C(CC1c2ccccc2-c2ccccc21)N1CCC(O)(c2ccccc2)CC1` [Compound G], the “% of Control” value (1 μM test compound + 10 μM Retinol) was 80.2% and 102.9%; the “% of Control” value (1 μM test compound alone, 1 µM) is 77.3% and 105.2%; the “% of Control” value under setting [1] came out at 75.4%. Also, under setting [2], the activity at 1 µM stood at 114%. In addition, the activity at 10 µM reads like this: under setting [3], 65.3%; under setting [4], 63.8%; under setting [5], 63%.
`CC1=C(/C=C/C(C)=C/C=C/C(C)=C/CO)C(C)(C)CCC1` [Retinol, retinol, reference compound]: the “% of Control” value (1 μM Retinol alone) was 98.4% and 99.9% and 85.5% and 99.3%; the “% of Control” value (10 μM Retinol alone) was 101.8% and 111.7% and 100.1% and 81.8% and 104.8% and 95.2%. In addition, the sebum suppressive activity entry (alone, summary in words) was “inactive”.
`Cc1c(Cl)cccc1NC(=O)N1c2ccccc2CCc2ccccc21` [Compound D]: the “% of Control” value (100 μM test compound + 1 μM Retinol) is listed as 1.1%, the “% of Control” value (100 μM test compound + 10 μM Retinol) was found to be 0.5% and the “% of Control” value (100 μM test compound alone) was 1.8%. Moreover, the activity at 1 µM stood at 75.4% under setting [2], 74.3% under setting [6] and 80.1% under setting [7]. The activity at 10 µM reads like this: under setting [3], 105%; under setting [4], 88.7%; under setting [5], 101%.
Consider `CCCN(CCO)C(=O)CC1c2ccccc2-c2ccccc21` [Compound H], for which the activity at 1 µM came out at 76.8% under setting [2], 68% under setting [6] and 65.9% under setting [7]. In addition, the activity at 10 µM by setting is: under setting [3], 71%; under setting [4], 73.5%; under setting [5], 71.1%.
Regarding `O=C(Nc1ccc(O)cc1)N1c2ccccc2CCc2ccccc21` [Compound C], the activity at 1 µM reads like this: under setting [2], 83.7%; under setting [6], 70.3%; under setting [7], 91.4%. The activity at 10 µM under setting [3] was found to be 27.5%, the activity at 10 µM under setting [4] stood at 1.4% and the activity at 10 µM under setting [5] is 41.5%. The “sebum suppressive activity when combined with retinol” value (in the presence of retinol / a retinoid, summary in words) was “improved activity”.
Consider `O=C(Nc1ccc(OC(F)(F)F)cc1)N1c2ccccc2CCc2ccccc21` [Compound B], for which the activity at 1 µM reads like this: under setting [2], 86%; under setting [6], 74.2%; under setting [7], 88.9%. Besides, the activity at 10 µM runs as follows: under setting [3], 96%; under setting [4], 111%; under setting [5], 82%.
On to `O=C(CC1c2ccccc2-c2ccccc21)N1CCC(O)(c2ccc(Cl)cc2)CC1` [Compound F], for which the “% of Control” value (10 μM test compound alone) was 26.7% and 75.0%. The activity at 1 µM was 35.7% under setting [2] and 29.3% under setting [6]. For the same molecule, the activity at 10 µM under setting [3] came out at 15.3%.
